Test results reported in patent US20240269305A1, “STING AGONIST SUITABLE AS PAYLOAD OF ANTIBODY DRUG CONJUGATE” (HITGEN INC., priority 2021, published 2024).

Columns and labels:
STING signaling pathway [1] = test: IFN-β production in THP1 cells (ELISA); format: cell-based; settings: Homo sapiens, read-out: IFN-β EC50
Description: In this experiment, the function of sting agonists was evaluated by detecting the changes of IFN-β and CXCL10 (IP10) cytokines which were produced by the stimulation of the compounds to human peripheral blood mononuclear cell line THP1 cell (Shanghai Cell Bank). On the first day of the experiment, ELISA plates were coated according to the instructions of IFN-β (R&D, #DY814-05) and IP10 (BD, #550926) ELISA detection kits. The compound was dissolved in DMSO as a stock solution, which was diluted with culture medium to a 2× working concentration, and then added to a 96-well plate at 100 μL per well; THP1 cells in the logarithmic growth phase were counted and diluted to a concentration of 2*10^6/mL, which was then added at 100 μL per well to the aforementioned 96-well plate containing the compounds. After mixed, the above cells in the 96-well plate were incubated at 37° C. and 5% CO2 for 18 h. On the second day, the above cell culture supernatant was aspirated at 100 μL per well, and then their OD450 values were determined using the IFN-β and IP10 ELISA detection kits respectively. The obtained data was converted to the concentration of IFN-β and IP10 according to the standard curve, and the EC50 values were calculated using GraphPad 5.0 to fit the dose-effect curve.

STING signaling pathway [2] = test: THP1-Blue ISG reporter assay (QUANTI-Blue); format: cell-based, human
Description: (§1) In this experiment, THP1-Blue™ ISG (interferon-stimulated genes) cell line (InvivoGen, catalog number: thp-isg) was used to evaluate the activating of interferon signaling pathway after the treatment by the compounds. THP1-Blue™ ISG cells were cultured using RPMI1640 medium (containing 10% heat-inactivated fetal bovine serum, 100 μg/ml Zeocin™, InvivoGen, catalog number: ant-zn-1). On the first day of the experiment, the compound was dissolved in DMSO as a stock solution, which was then diluted with culture medium to 2× working concentration and then 100 μL per well of the above dilution was added to a 96-well plate; THP1 cells in the logarithmic growth phase were counted and diluted to a concentration of 1*10^6 cells/mL, which was then added at 100 μL per well (1*10^5 cells/well) to the aforementioned 96-well plate containing the compounds. After mixed, the above cells in the 96-well plate were incubated at 37° C. with 5% CO2 for 18 h. On the second day, the above cell culture supernatant was aspirated at 20 μL per well, which was added to a new 96-well plate. And then 180 μL per well of QUANTI-Blue™ solution (InvivoGen, catalog number: rep-qbs1) was added. The above cells in the 96-well plate were incubated at 37° C. for 1 h. OD (620-655 nm) value was read on a Microplate Reader, and the EC50 value was calculated by using GraphPad to fit the dose-effect curve. 50 μL of Celltiter Glo solution (Promega, Cat. No. G756B) was added to the remaining cell culture plates.

[3] = Cytotoxicity in THP1-Blue ISG cells (Celltiter Glo); format: cell-based, human; settings: Celltiter Glo luminescence; for CC50 at 18 h: human
Description: as §1

STING signaling pathway [4] = test: Cytokine secretion in PBMC (ELISA); format: cell-based; settings: 6 h
Description: (§2) The following experiments were performed to determine the activation effect of the compound on the STING signaling pathway in PBMC cells, which mainly using ELISA to detect the secretion of IL-6, TNF-, IFN-, and IFN- in the cell culture supernatant. At the same time, CTG (CellTiter-Glo) was used to detect the survival rate of the cells, and to calculate the half cytotoxic dose of cells CC50.
(§3) The frozen PBMC cells were placed in a 37° C. water bath. After the ice was completely melted, the cells were transferred to 3 ml of RPMI 1640 complete culture medium (containing 10% FBS), and then centrifuged at 1500 rpm for 3 minutes. After removing the supernatant, the cells were re-suspended for counting. 200 μL of 50,000 PBMC cells were added in a 96-well plate, and the compounds to be tested were diluted with different gradient concentrations. After 6 h, 150 μL of the cell supernatant was aspirated, and the concentrations of IL-6, TNF-, IFN-, and IFN- were measured using ELISA kits, and the curves of compound concentration and cytokine release were drawn to calculate the values of EC50. 50 μL of CTG solution was added to the remaining cell culture plate.

[5] = Cytotoxicity in PBMC (CellTiter-Glo); format: cell-based; settings: PBMC cells, CTG
Description: as §2, §3

[6] = THP-1, THP1 cells, 18 h incubation, ELISA of culture supernatant
[7] = Homo sapiens, THP1-Blue ISG cells, 18 h incubation, QUANTI-Blue OD 620-655 nm, read-out: EC50
[8] = ELISA of supernatant, read-out: IFN-β EC50
[9] = ELISA of supernatant, read-out: IL-6 EC50
[10] = ELISA of supernatant, read-out: TNF-α EC50
[11] = THP1-Blue ISG cells, 18 h incubation, QUANTI-Blue OD 620-655 nm, read-out: EC50

Structure (SMILES) | EC50 (STING signaling pathway [1]; [6]) [µM] | EC50 (STING signaling pathway [2]; [7]) [µM] | CC50 at 18 h [3] [µM] | EC50 (STING signaling pathway [4]; [8]) [µM] | EC50 (STING signaling pathway [4]; [9]) [µM] | EC50 (STING signaling pathway [4]; [10]) [µM] | CC50 at 6 h [5] [µM] | also measured
CCc1nc(C)sc1C(=O)Nc1nc2cc(C(N)=O)cc(OCCCN3CCN(C(=O)CCN)CC3)c2n1C/C=C/Cn1c(NC(=O)c2cc(C)nn2CC)nc2cc(C(N)=O)cc(SC)c21 [Example 1] | 0.1 to 1 | < 0.1 | > 50 | 0.1 to 1 | 0.1 to 1 | 0.1 to 1 | > 25 | 
CCc1nc(C)sc1C(=O)Nc1nc2cc(C(N)=O)cc(OCCCN3CCN(C(=O)CCCNC)CC3)c2n1C/C=C/Cn1c(NC(=O)c2cc(C)nn2CC)nc2cc(C(N)=O)cc(SC)c21 [Example 2] | 0.1 to 1 | < 0.1 | > 50 | 0.1 to 1 | 0.1 to 1 | 0.1 to 1 | > 40 | 
CCc1nc(C)sc1C(=O)Nc1nc2cc(C(N)=O)cc(OCCCN3CCN(C(=O)C(C)(C)CCN)CC3)c2n1C/C=C/Cn1c(NC(=O)c2cc(C)nn2CC)nc2cc(C(N)=O)cc(SC)c21 [Example 3] | 0.1 to 1 | < 0.1 | > 50 | 0.1 to 1 | 0.1 to 1 | 0.1 to 1 | > 40 | 
CCc1nc(C)sc1C(=O)Nc1nc2cc(C(N)=O)cc(OCCCN3CCN(C(=O)OCCCN4CCNCC4)CC3)c2n1C/C=C/Cn1c(NC(=O)c2cc(C)nn2CC)nc2cc(C(N)=O)cc(SC)c21 [Example 6] | 0.1 to 1 |  |  |  |  |  |  | 
CCc1nc(C)sc1C(=O)Nc1nc2cc(C(N)=O)cc(OCCCN3CCN(C(=O)OCCCC4CCNCC4)CC3)c2n1C/C=C/Cn1c(NC(=O)c2cc(C)nn2CC)nc2cc(C(N)=O)cc(SC)c21 [Example 8] |  |  |  |  |  |  |  | EC50 (STING signaling pathway [1]; THP-1, 18 h): 0.1 to 1 µM
CCc1nc(C)sc1C(=O)Nc1nc2cc(C(N)=O)cc(OCCCN3CCN(C(=O)OCCCN)CC3)c2n1C/C=C/Cn1c(NC(=O)c2cc(C)nn2CC)nc2cc(C(N)=O)cc(SC)c21 [Example 10] |  |  | > 50 |  |  |  | > 40 | EC50 (STING signaling pathway [1]; THP-1, 18 h): 0.1 to 1 µM; EC50 (STING signaling pathway [2]; Homo sapiens, THP1-Blue ISG, 18 h): < 0.1 µM; EC50 (STING signaling pathway [4]; read-out: IFN-β EC50): 0.1 to 1 µM; EC50 (STING signaling pathway [4]; read-out: IL-6 EC50): 0.1 to 1 µM; EC50 (STING signaling pathway [4]; read-out: TNF-α EC50): 0.1 to 1 µM
CCc1nc(C)sc1C(=O)Nc1nc2cc(C(N)=O)cc(OCCCN3CCN(CCNC)CC3)c2n1C/C=C/Cn1c(NC(=O)c2cc(C)nn2CC)nc2cc(C(N)=O)cc(SC)c21 [Example 11] | > 1 |  |  |  |  |  |  | 
CCc1nc(C)sc1C(=O)Nc1nc2cc(C(N)=O)cc(OCCCN3CCN(CCN)CC3)c2n1C/C=C/Cn1c(NC(=O)c2cc(C)nn2CC)nc2cc(C(N)=O)cc(SC)c21 [Example 12] | > 1 |  |  |  |  |  |  | 
CCc1nc(C)sc1C(=O)Nc1nc2cc(C(N)=O)cc(SC)c2n1C/C=C/Cn1c(NC(=O)c2cc(C)nn2CC)nc2cc(C(N)=O)cc(OCCCN3CCN(C(=O)OCCCC4CCNCC4)CC3)c21 [Example 13] | 0.1 to 1 | < 0.1 | > 50 | 0.1 to 1 | < 0.1 | < 0.1 | > 50 | 
CCc1nc(C)sc1C(=O)Nc1nc2cc(C(N)=O)cc(SC)c2n1C/C=C/Cn1c(NC(=O)c2c(F)c(C)nn2CC)nc2cc(C(N)=O)cc(OCCCN3CCN(C(=O)OCCCC4CCNCC4)CC3)c21 [Example 14] | 0.1 to 1 | < 0.1 | > 50 | 0.1 to 1 | 0.1 to 1 | < 0.1 | > 50 | 
CCc1nc(C)sc1C(=O)Nc1nc2cc(C(N)=O)cc(OCCCN3CCN(C(=O)OCCCC4CCNCC4)CC3)c2n1C/C=C/Cn1c(NC(=O)c2c(F)c(C)nn2CC)nc2cc(C(N)=O)cc(SC)c21 [Example 15] | 0.1 to 1 |  |  |  |  |  |  | 
CCc1nc(C)sc1C(=O)Nc1nc2cc(C(N)=O)cc(OCCCN3CCOCC3)c2n1C/C=C/Cn1c(NC(=O)c2c(F)c(C)nn2CC)nc2cc(C(N)=O)cc(SCCCN)c21 [Example 17] | > 1 |  |  |  |  |  |  | 
CCc1nc(C)sc1C(=O)Nc1nc2cc(C(N)=O)cc(OCCCN3CCOCC3)c2n1C/C=C/Cn1c(NC(=O)c2c(F)c(C)nn2CC)nc2cc(C(N)=O)cc(SCCCNC(=O)OCCCC3CCNCC3)c21 [Example 18] | > 1 |  |  |  |  |  |  | 
CCc1nc(C)sc1C(=O)Nc1nc2cc(C(N)=O)cc(OCCCN3CCOCC3)c2n1C/C=C/Cn1c(NC(=O)c2c(F)c(C)nn2CC)nc2cc(C(N)=O)cc(OCCCN)c21 [Example 19] | > 1 |  |  |  |  |  |  | 
CCc1nc(C)sc1C(=O)Nc1nc2cc(C(N)=O)cc(OC)c2n1C/C=C/Cn1c(NC(=O)c2cc(C)nn2CC)nc2cc(C(N)=O)cc(OCCCN3CCNCC3)c21 [Example 20] |  | 0.1 to 1 | > 50 | 0.1 to 1 | 0.1 to 1 | 0.1 to 1 | > 50 | 
CCc1nc(C)sc1C(=O)Nc1nc2cc(C(N)=O)cc(OCCCN3CCNCC3)c2n1C/C=C/Cn1c(NC(=O)c2cc(C)nn2CC)nc2cc(C(N)=O)cc(OC)c21 [Example 21] |  | < 0.1 |  | 0.1 to 1 | 0.1 to 1 | < 0.1 |  | 
CCc1nc(C)sc1C(=O)Nc1nc2cc(C(N)=O)cc(OCCCN3CCN(C(=O)OCCCNC(=O)OCc4ccc(NC(=O)[C@H](CCCNC(N)=O)NC(=O)[C@@H](NC(=O)CCCCCN5C(=O)C=CC5=O)C(C)C)cc4)CC3)c2n1C/C=C/Cn1c(NC(=O)c2cc(C)nn2CC)nc2cc(C(N)=O)cc(SC)c21 [Example 40] |  |  |  |  | < 0.1 | < 0.1 |  | EC50 (STING signaling pathway [2]; [11]): < 0.1 µM; CC50 ([3]; 18 h): > 50 µM
CCc1nc(C)sc1C(=O)Nc1nc2cc(C(N)=O)cc(OCCCN3CCN(C(=O)C(C)(C)CCNC(=O)OCCCNC(=O)OCc4ccc(NC(=O)[C@H](CCCNC(N)=O)NC(=O)[C@@H](NC(=O)CCCCCN5C(=O)C=CC5=O)C(C)C)cc4)CC3)c2n1C/C=C/Cn1c(NC(=O)c2cc(C)nn2CC)nc2cc(C(N)=O)cc(SC)c21 [Example 41] |  |  | > 50 |  | 0.1 to 1 | 0.1 to 1 |  | EC50 (STING signaling pathway [2]; [11]): < 0.1 µM
